Results from US7572799B2, “Pyrazolo[4,3-d]pyrimidines as Phosphodiesterase Inhibitors” (Pfizer Inc, priority 2003, dated 2009).

Target: PDE-5 (UniProt O76074)
Experiment: In vitro PDE inhibitory activity against PDE5 (batch method or scintillation proximity assay)
Type: biochemical, human
Conditions: representative compounds
Text: The compounds of the invention are inhibitors of cyclic guanylate monophosphate (cGMP)-specific phosphodiesterase type 5 (PDE-5 inhibitors).
The required PDE enzymes can be isolated from a variety of sources, including human corpus cavernosum, human and rabbit platelets, human cardiac ventricle, human skeletal muscle and bovine retina, essentially by a modification of the method of Thompson, W J et al.; Biochemistry 18(23), 5228-5237, 1979, as described by Ballard S A et al.; J. Urology 159(6), 2164-2171, 1998. In particular, cGMP-specific PDE5 and cGMP-inhibited cAMP PDE3 can be obtained from human corpus cavernosum tissue, human platelets or rabbit platelets; cGMP-stimulated PDE2 was obtained from human corpus cavernosum; calcium/calmodulin (Ca/CAM)-dependent PDE1 from human cardiac ventricle; cAMP-specific PDE4 from human skeletal muscle; and photoreceptor PDE6 from bovine retina. Phosphodiesterases 7-11 can be generated from full length human recombinant clones transfected into SF9 cells.
Assays can be performed either using a modification of the “batch”method of Thompson W J and Appleman M M; Biochemistry 10(2), 311-316, 1971, essentially as described by Ballard S A et al.; J. Urology 159(6), 2164-2171, 1998, or using a scintillation proximity assay for the direct detection of [^3H]-labelled AMP/GMP using a modification of the protocol described by Amersham plc under product code TRKQ7090/7100. In summary, for the scintillation proximity assay the effect of PDE inhibitors was investigated by assaying a fixed amount of enzyme in the presence of varying inhibitor concentrations and low substrate, (cGMP or cAMP in a 3:1 ratio unlabelled to [^3H]-labeled at a concentration of ˜⅓ Km, or less) such that IC50≅Ki. The final assay volume was made up to 100 μl with assay buffer [20 mM Tris-HCl pH 7.4, 5 mM MgCl2, 1 mg/ml bovine serum albumin]. Reactions were initiated with enzyme, incubated for 30-60 min at 30° C. to give <30% substrate turnover and terminated with 50 μl yttrium silicate SPA beads (containing 3 mM of the respective unlabelled cyclic nucleotide for PDEs 9 and 11).

Structure (SMILES)	IC50
Cc1ccnc(Nc2nc(N(C)C)nc3c(C(=O)O)nn(CC4CCCCO4)c23)c1 (centres unmarked) [Example 59]	43.6 nM
CCOCCn1nc(C(=O)O)c2nc(N(CC)CC)nc(N[C@@H]3CCOC3)c21 [Example 68]	100 nM

Same assay, conditions: representative compounds, read-out: IC50

Structure (SMILES)	IC50
CO[C@H](C)Cn1nc(C(=O)O)c2nc(N(C)C)nc(Nc3cc(C)ccn3)c21 [Example 64]	100 nM
CCCN(CC1CC1)c1nc(Nc2cc(C)ccn2)c2c(n1)c(C(=O)O)nn2CCOCC [Example 49]	4.92 nM
CCOCCn1nc(C(=O)OC)c2nc(N(C)C(C)C)nc(Nc3cccc(C)n3)c21 [Example 6, Methyl 1-(2-ethoxyethyl)-5-(N-isopropyl-N-methylamino)-7-(6-methylpyridin-2-ylamino) -1H-pyrazolo[4,3-d]pyrimidine-3-carboxylate]	2.89 nM
CCN(CC)c1nc(Nc2cc(C)ccn2)c2c(n1)c(C(=O)O)nn2C[C@@H](C)OC [Example 66]	13.5 nM
CCOCCn1nc(C(=O)O)c2nc(N(C)C3CCC3)nc(Nc3cc(C)ccn3)c21 [Example 51]	2.57 nM
CCOCCn1nc(C(=O)O)c2nc(N(C)CC)nc(Nc3cccc(C)n3)c21 [Example 38]	16.7 nM
CCOCCn1nc(C(=O)O)c2nc(N(C)C)nc(Nc3ccnc(OC)n3)c21 [Example 71]	2.46 nM
CCOCCn1nc(C(=O)OCC)c2nc(N(C)C(C)C)nc(Nc3cc(C)ccn3)c21 [Example 9]	0.075 nM
CCOCCn1nc(C(=O)OCCN(C)C)c2nc(N(C)C)nc(Nc3cc(C)ccn3)c21 [Example 10, 2-(Dimethylamino)ethyl 5-dimethylamino-1-(2-ethoxyethyl)-7-(4-methylpyridin-2-ylamino)-1H-pyrazolo[4,3-d]pyrimidine-3-carboxylate]	1.86 nM
CCOCCn1nc(C(=O)O)c2nc(N(C)CCOC)nc(Nc3cc(C)ccn3)c21 [Example 17]	2.93 nM
CCOCCn1nc(C(=O)O)c2nc(N(C)CC)nc(Nc3cc(C)c(C)cn3)c21 [Example 40]	0.167 nM
CCOCCn1nc(C(=O)O)c2nc(N(CC)CCOC)nc(Nc3cc(C)ccn3)c21 [Example 52]	3.4 nM
CCOCCn1nc(C(=O)O)c2nc(N(C)C)nc(Nc3cc(C)ccn3)c21 [Example 14]	8.75 nM
CCOCCn1nc(C(=O)O)c2nc(N(C)C)nc(Nc3cc(C)cc(C)n3)c21 [Example 27]	36.8 nM
CCOCCn1nc(C(=O)OC)c2nc(N(C)CC)nc(Nc3cc(C)ccn3)c21 [Example 2]	0.201 nM
CCOCCn1nc(C(=O)O)c2nc(N(C)C(C)CC)nc(Nc3cc(C)ccn3)c21 (centres unmarked) [Example 50]	1.66 nM
CCOCCn1nc(C(=O)O)c2nc(N3CC[C@H](OC)C3)nc(Nc3cc(C)ccn3)c21 [Example 12]	14.7 nM
CCOCCn1nc(C(=O)OCC)c2nc(N3CCN[C@H](C)C3)nc(Nc3cc(C)ccn3)c21 [Example 8]	3.82 nM
CCOCCn1nc(-c2nnn[nH]2)c2nc(N(C)C)nc(Nc3cc(C)ccn3)c21 [Example 80]	2.88 nM
CCOCCn1nc(-c2nc(=O)o[nH]2)c2nc(N(CC)CC)nc(Nc3ccc(F)c(C)c3)c21 [Example 78]	0.24 nM
CCOCCn1nc(C(=O)O)c2nc(N(C)CC)nc(Nc3ccnc(C)n3)c21 [Example 73]	52.3 nM
CCOCCn1nc(C(=O)O)c2nc(N(C)C)nc(Nc3cc(C)c(C)cn3)c21 [Example 41]	3.2 nM
CCOCCn1nc(C(=O)O)c2nc(N(C)C(C)C)nc(Nc3ccncn3)c21 [Example 28]	11.6 nM
CCOCCn1nc(C(=O)O)c2nc(N(C)C(C)C)nc(Nc3cc(CC)ccn3)c21 [Example 36]	0.708 nM
Cc1ccnc(Nc2nc(N(C)C)nc3c(C(=O)O)nn(CCOC(C)C)c23)c1 [Example 61]	13.1 nM

The remaining lines, values ahead:

IC50	Structure (SMILES)
1.72 nM	CCOCCn1nc(C(=O)O)c2nc(N(C)CC)nc(Nc3cccc(C)c3)c21 [Example 118, 1-(2-Ethoxyethyl)-5-[ethyl(methyl)amino]-7-[(3-methylphenyl)amino]-1H-pyrazolo[4,3-d]pyrimidine-3-carboxylic acid]
18.3 nM	Cc1ccnc(Nc2nc(N(C)C(C)C)nc3c(C(=O)O)nn(CCOCC4CC4)c23)c1 [Example 108]
7.78 nM	Cc1ccnc(Nc2nc(N3CCCC3C)nc3c(C(=O)O)nn(CCOCC(F)(F)F)c23)c1 (centres unmarked) [Example 129, 7-[(4-Methylpyridin-2-yl)amino]-5-(2-methylpyrrolidin-1-yl)-1-[2-(2,2,2-trifluoroethoxy)ethyl]-1H-pyrazolo[4,3-d]pyrimidine-3-carboxylic acid]
9.7 nM	CCN(C)c1nc(Nc2cc(C)ccn2)c2c(n1)c(C(=O)O)nn2CCOCC1CC1 [Example 109]
9.74 nM	CCOCCn1nc(C(=O)O)c2nc(N(C)CC)nc(Nc3cccc(CC)n3)c21 [Example 97]
0.398 nM	CCOCCn1nc(C(=O)NS(C)(=O)=O)c2nc(N(C)CC)nc(Nc3cc(CO)ccn3)c21 [Example 153]
2.37 nM	CCOCCn1nc(C(=O)O)c2nc(N(C)C(C)C)nc(Nc3cccc(OC)n3)c21 [Example 84]
0.025 nM	CCOCCn1nc(C(=O)OC)c2nc(N(CC)CC)nc(Nc3ccc(F)c(C)c3)c21 [Example 117, Methyl 5-(diethylamino)-1-(2-ethoxyethyl)-7-[(4-fluoro-3-methylphenyl)amino]-1H-pyrazolo[4,3-d]pyrimidine-3-carboxylate]
16.7 nM	CCOCCn1nc(C(=O)O)c2nc(N(C)C(C)C)nc(Nc3ccc(F)cn3)c21 [Example 81, 1-(2-Ethoxyethyl)-7-(5-fluoropyridin-2-ylamino)-5-(N-isopropyl-N-methylamino)-1H-pyrazolo[4,3-d]pyrimidine-3-carboxylic acid]
2.21 nM	CCN(C)c1nc(Nc2cc(C)ccn2)c2c(n1)c(C(=O)NS(C)(=O)=O)nn2CCOCC(F)(F)F [Example 178, 5-[Ethyl(methyl)amino]-7-[(4-methylpyridin-2-yl)amino]-N-(methylsulfonyl)-1-[2-(2,2,2-trifluoroethoxy)ethyl]-1H-pyrazolo[4,3-]pyrimidine-3-carboxamide]
2.83 nM	CCOCCn1nc(C(=O)O)c2nc(N(C)C(C)C)nc(Nc3ccc(F)c(F)c3)c21 [Example 90]
3.65 nM	CCOCCn1nc(C(=O)O)c2nc(N(C)CC)nc(Nc3cc(C)ccn3)c21 [Example 96]
0.071 nM	Cc1cc(Nc2nc(N(C)C(C)C)nc3c(C(=O)O)nn(CCOCC(F)(F)F)c23)ccc1F [Example 139]
11.5 nM	CCN(C)c1nc(Nc2cc(C)ccn2)c2c(n1)c(C(=O)O)nn2CCOC [Example 119]
0.383 nM	CCCOCCn1nc(C(=O)NS(C)(=O)=O)c2nc(N(CC)CC)nc(Nc3cc(C)ccn3)c21 [Example 183, 5-(Diethylamino)-7-[(4-methylpyridin-2-yl)amino]-N-(methylsulfonyl)-1-(2-propoxyethyl)-1H-pyrazolo[4,3-d]pyrimidine-3-carboxamide]
0.303 nM	CCOCCn1nc(C(=O)O)c2nc(N(C)C(C)C)nc(Nc3cccc(C)c3)c21 [Example 94]
7.7 nM	CO[C@@H](C)Cn1nc(C(=O)O)c2nc(N(C)C(C)C)nc(Nc3cc(C)ccn3)c21 [Example 135, 5-[Isopropyl(methyl)amino]-1-[(2S)-2-methoxypropyl]-7-[(4-methylpyridin-2-yl)amino]-1H-pyrazolo[4,3-d]pyrimidine-3-carboxylic acid]
1.29 nM	Cc1ccnc(Nc2nc(N(C)C(C)C)nc3c(C(=O)NS(C)(=O)=O)nn(CCOCC(F)F)c23)c1 [Example 181]
6.34 nM	CCN(C)c1nc(Nc2cc(C)ccn2)c2c(n1)c(C(=O)O)nn2CCOCC(F)(F)F [Example 127, 5-[Ethyl(methyl)amino]-7-[(4-methylpyridin-2-yl)amino]-1-[2-(2,2,2-trifluoroethoxy)ethyl]-1H-pyrazolo[4,3-d]pyrimidine-3-carboxylic acid]
3.94 nM	CCN(CC)c1nc(Nc2cc(C)ccn2)c2c(n1)c(C(=O)O)nn2CCOCC(F)(F)F [Example 128, 5-(Diethylamino)-7-[(4-methylpyridin-2-yl)amino]-1-[2-(2,2,2-trifluoroethoxy)ethyl]-1H-pyrazolo[4,3-d]pyrimidine-3-carboxylic acid]
0.27 nM	CCOCCn1nc(C(=O)NS(C)(=O)=O)c2nc(N(C)C(C)C)nc(Nc3cc(C)ccn3)c21 [Example 113, N-[1-(2-Ethoxyethyl)-5-(N-isopropyl-N-methylamino)-7-(4-methylpyridin-2-ylamino)-1H-pyrazolo[4,3-d]pyrimidine-3-carbonyl]methanesulfonamide]
0.141 nM	CCOCCn1nc(C(=O)OCCN(C)C)c2nc(N(C)C(C)C)nc(Nc3cc(C)ccn3)c21 [Example 147, 2-(Dimethylamino)ethyl 1-(2-ethoxyethyl)-5-[isopropyl(methyl)amino]-7-[(4-methylpyridin-2-yl)amino]-1H-pyrazolo[4,3-d]pyrimidine-3-carboxylate]
5.06 nM	CCOCCn1nc(C(=O)O)c2nc(N(C)C(C)C)nc(Nc3cc(F)cc(F)c3)c21 [Example 91]
